Source: patent US12673936B2, “Isoindolinone compounds, and uses thereof” (HANGZHOU GLUBIO PHARMACEUTICAL CO., LTD., priority 2021, dated 2026)
Where two headings read alike, the source gives them in different places.

How the values were obtained:
MV4-11 cells = test: MV4-11 cell proliferation assay (CTG cell viability); assay type: cell-based; conditions: 120 hours, read-out: CTG cell viability assay_MV4-11: IC50
Procedure: MV4-11 Cell Proliferation Assay
The following is an example of an assay that can be used to determine the dose-dependent, anti-proliferative activity of CK1α degradating compounds in an AML cell line such as MV4-11 (ATCC Cat #CRL-9591).
(§1) MV4-11 cells were seeded into a 384-well plate (Cat #3764, Corning) pre-spotted with DMSO or test compounds. Increasing concentrations of test compounds (ranging from 1×10^−3 μM to 10 μM at a 3.162-fold increment in a 10-point dose response assay; ranging from 3.162×10^−4 μM to 10 μM at a 3.162-fold increment in a 11-point dose response assay) or DMSO were dispensed into an empty 384-well plate using an a D300e digital dispenser (Tecan) or an Echo Acoustic Liquid Handler (Beckman Coulter). About 2,000 cells in 50 μL of culture media (IMDM plus 10% heat-inactivated FBS) were seeded per well. Assay plates were incubated at 37° C. with 5% CO2 for 120 hours. After that, 20 μL of the CellTiter-Glo Luminescent Cell Viability Assay Reagent (Cat #G7573, Promega) was added to each well and incubated at room temperature for 30 minutes. Luminescence was then measured with an EnVision plate reader (PerkinElmer) or a PHERAstar plate reader (BMG LABTECH). All cell growth inhibition curves were processed using Collaborative Drug Discovery Vault softwares (Burlingame, CA, www.collaborativedrug.com).
Cell viability reads in compound-treated wells were normalized to that of DMSO control and expressed as Percent of Control (PoC, y). A four Parameter Logistic Model was used to determine the compound's EC50 and DC50, using the following equation:
[formula] • A==lowest cell viability read normalized to DMSO control in response to compound treatment, as determined by curve fit • B=cell viability read in DMSO control • C=EC50 • D=Hill Slope • x=compound concentration • EC50=the concentration of compound when y=(B−A)/2 • IC50=the concentration of the compound when y=50% of DMSO control • y=cell viability read normalized to DMSO control Ymin=(A/B)*100% • Ymin represents the lowest cell viability % that can be achieved by the compound treatment in the assay.

HiBiT tagged GSPT1 = HiBiT tagged GSPT1 (Homo sapiens, UniProt P15170+Q96SW2); test: GSPT1 degradation assay (HiBiT assay); assay type: cell-based; conditions: 20 hours, maximum GSPT1 degradation; for Dmax: HT-1080, HT-1080 cells
HiBiT tagged GSPT1, sequence (P15170 whole entry): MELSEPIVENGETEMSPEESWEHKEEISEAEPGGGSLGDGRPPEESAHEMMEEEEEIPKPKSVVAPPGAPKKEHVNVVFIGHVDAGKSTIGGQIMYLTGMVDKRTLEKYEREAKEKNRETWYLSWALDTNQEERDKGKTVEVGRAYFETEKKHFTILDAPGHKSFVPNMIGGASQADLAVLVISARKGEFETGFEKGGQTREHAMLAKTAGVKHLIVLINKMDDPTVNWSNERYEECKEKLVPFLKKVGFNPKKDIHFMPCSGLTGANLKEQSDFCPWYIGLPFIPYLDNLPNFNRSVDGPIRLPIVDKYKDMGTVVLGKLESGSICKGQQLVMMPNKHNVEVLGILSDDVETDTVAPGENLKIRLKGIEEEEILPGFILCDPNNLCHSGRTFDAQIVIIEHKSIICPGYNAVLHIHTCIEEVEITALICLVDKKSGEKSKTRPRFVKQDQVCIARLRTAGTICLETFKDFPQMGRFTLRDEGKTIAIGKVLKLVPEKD
HiBiT tagged GSPT1, sequence (Q96SW2 whole entry): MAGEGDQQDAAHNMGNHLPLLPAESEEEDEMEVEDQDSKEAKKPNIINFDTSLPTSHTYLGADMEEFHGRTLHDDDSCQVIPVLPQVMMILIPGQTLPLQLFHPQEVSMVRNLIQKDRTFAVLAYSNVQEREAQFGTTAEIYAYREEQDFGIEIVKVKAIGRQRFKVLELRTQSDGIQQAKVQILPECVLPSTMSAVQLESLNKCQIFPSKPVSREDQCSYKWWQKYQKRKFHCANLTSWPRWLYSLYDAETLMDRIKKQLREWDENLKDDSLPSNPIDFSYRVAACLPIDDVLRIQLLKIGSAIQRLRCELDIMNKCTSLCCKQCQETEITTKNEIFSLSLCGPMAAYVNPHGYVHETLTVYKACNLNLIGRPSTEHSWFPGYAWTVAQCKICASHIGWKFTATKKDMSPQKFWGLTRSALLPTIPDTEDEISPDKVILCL
HiBiT tagged GSPT1, sequence (Q16531 whole entry partner): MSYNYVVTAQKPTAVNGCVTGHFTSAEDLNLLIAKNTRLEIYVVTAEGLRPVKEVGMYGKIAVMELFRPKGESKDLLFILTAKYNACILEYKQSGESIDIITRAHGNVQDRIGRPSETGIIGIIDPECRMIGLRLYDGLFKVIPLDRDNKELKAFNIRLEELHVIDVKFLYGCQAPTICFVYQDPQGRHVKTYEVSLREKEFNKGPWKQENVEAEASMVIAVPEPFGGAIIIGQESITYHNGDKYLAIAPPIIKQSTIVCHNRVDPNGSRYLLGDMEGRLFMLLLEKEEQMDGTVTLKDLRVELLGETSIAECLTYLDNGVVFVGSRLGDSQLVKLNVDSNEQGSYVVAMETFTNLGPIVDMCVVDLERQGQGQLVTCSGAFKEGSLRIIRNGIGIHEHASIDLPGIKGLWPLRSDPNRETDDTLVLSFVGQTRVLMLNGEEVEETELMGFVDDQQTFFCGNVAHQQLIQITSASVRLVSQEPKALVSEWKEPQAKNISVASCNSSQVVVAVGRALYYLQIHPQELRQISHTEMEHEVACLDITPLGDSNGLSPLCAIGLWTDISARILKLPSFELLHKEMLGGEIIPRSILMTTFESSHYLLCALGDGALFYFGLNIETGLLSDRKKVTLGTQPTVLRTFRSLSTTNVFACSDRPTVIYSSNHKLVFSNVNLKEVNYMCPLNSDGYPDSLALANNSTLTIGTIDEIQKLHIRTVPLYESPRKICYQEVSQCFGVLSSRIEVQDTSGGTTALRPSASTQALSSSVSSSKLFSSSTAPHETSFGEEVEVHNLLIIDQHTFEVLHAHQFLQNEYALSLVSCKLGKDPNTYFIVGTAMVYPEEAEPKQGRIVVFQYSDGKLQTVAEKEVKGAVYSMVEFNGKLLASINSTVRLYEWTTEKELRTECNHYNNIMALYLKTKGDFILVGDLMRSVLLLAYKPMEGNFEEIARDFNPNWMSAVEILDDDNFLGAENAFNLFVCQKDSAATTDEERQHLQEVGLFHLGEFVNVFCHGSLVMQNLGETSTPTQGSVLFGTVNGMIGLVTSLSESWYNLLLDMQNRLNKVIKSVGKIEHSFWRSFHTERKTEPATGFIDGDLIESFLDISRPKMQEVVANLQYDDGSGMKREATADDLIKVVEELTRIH
In short: (§2)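 HT-1080 cells stably expressing wild-type CRBN, GSPT1A(1-138)/G575N and HiBiT-tagged CK1α or GSPT1, ~10,000/well, treated with compound from 3.162×10^-4 μM to 10 μM (3.16-fold steps). HiBiT luminescence normalized to DMSO as percent of control.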

[1] = KG-1a cell proliferation assay (CTG cell viability, counter screen for GSPT1-mediated cytotoxicity); assay type: cell-based; conditions: human, KG-1a cells (AML cell line harboring p53 mutation), lowest cell viability, highest concentration 10 μM, read-out: CTG cell viability assay KG1a: Ymin
Source text: (§3) KG-1a Cell Proliferation Assay
(§4) On the other hand, most AML cell lines were reported to be sensitive to GSPT1 degradation induced by CC-885 or CC-90009 regardless of their p53 mutational status (Matyskiela et al., Nature (2016) 535:252-257; Surka et al., Blood (2021) 137 (5): 661-677). Because the subtle to moderate degradation of GSPT1 induced by CK1α degraders with mild activity towards GSPT1 might still result in toxicity in human, a counter screen using an AML cell line harboring p53 mutation such as KG-1a (ATCC Cat #CCL-246.1), was performed to determine the GSPT1-mediated cytotoxicity in vitro.
as §1, with “The following is an example of an assay that can be used to determine the potential GSPT1-dependent cytotoxcity of test compounds that degrade GSPT1. KG-1a cells” for “MV4-11 cells”, “[…]” for “1×10^−3 μM”, “[…]” for “3.162×10^−4 μM”, “with” for “with an”, “EnVision Multimode Plate Reader” for “EnVision plate reader”, “www.collaborativedrug.com). Cell viability reads in compound-treated wells were normalized to that of DMSO control and expressed as Percent of Control (PoC, y). A four Parameter Logistic Model was used to determine the compound's EC50 and DC50, using the following equation: […]” for “www.collaborativedrug.com).”

HiBiT tagged CK1α = HiBiT tagged CK1α (Homo sapiens, UniProt P48729+Q96SW2); test: CK1α degradation assay (HiBiT assay); assay type: cell-based; conditions: 20 hours; for Dmax: HT-1080, HT-1080 cells; for DC50: concentration at 50% CK1α degradation
HiBiT tagged CK1α, sequence (P48729 whole entry): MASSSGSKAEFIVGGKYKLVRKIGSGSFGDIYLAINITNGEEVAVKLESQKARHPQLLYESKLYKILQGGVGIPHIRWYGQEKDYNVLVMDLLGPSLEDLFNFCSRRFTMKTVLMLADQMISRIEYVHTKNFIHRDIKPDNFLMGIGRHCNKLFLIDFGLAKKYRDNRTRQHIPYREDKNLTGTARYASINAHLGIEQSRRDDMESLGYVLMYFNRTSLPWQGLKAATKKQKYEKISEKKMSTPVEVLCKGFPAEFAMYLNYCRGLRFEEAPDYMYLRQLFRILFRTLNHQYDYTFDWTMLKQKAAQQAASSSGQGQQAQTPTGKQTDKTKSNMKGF
HiBiT tagged CK1α, sequence (Q96SW2 whole entry): as the sequence (Q96SW2 whole entry) above
HiBiT tagged CK1α, sequence (Q16531 whole entry partner): as the sequence (Q16531 whole entry partner) above
In short: as §2

KG-1a cells = test: KG-1a cell proliferation assay (CTG cell viability, counter screen for GSPT1-mediated cytotoxicity); assay type: cell-based; conditions: 120 hours, lowest cell viability, highest concentration 10 μM
Source text: as §3, §4
as §1, with “The following is an example of an assay that can be used to determine the potential GSPT1-dependent cytotoxcity of test compounds that degrade GSPT1. KG-1a cells” for “MV4-11 cells”, “[…]” for “1×10^−3 μM”, “[…]” for “3.162×10^−4 μM”, “with” for “with an”, “EnVision Multimode Plate Reader” for “EnVision plate reader”, “www.collaborativedrug.com). Cell viability reads in compound-treated wells were normalized to that of DMSO control and expressed as Percent of Control (PoC, y). A four Parameter Logistic Model was used to determine the compound's EC50 and DC50, using the following equation: […]” for “www.collaborativedrug.com).”

[2] = Pharmacokinetic study of single intravenous and oral administration in mouse; assay type: in vivo; conditions: for C0 / clearance / half-life / Vd / AUC(0-inf) / Cmax / Tmax: plasma; for Vd: read-out: Vss
Procedure: The pharmacokinetic study of single intravenous and oral administration in mouse Sample collection and preparation: After intravenous injection or oral administration of test compounds, blood samples were collected and the blood collection time was recorded. After the blood sample was collected, it was immediately transferred into a labeled centrifuge tube containing K2-EDTA, followed by centrifugation and plasma collection. The plasma was then transferred into a pre-cooled centrifuge tube, quickly frozen on dry ice, and stored in an ultra-low temperature refrigerator at −70±10° C. until the LC-MS/MS analysis was performed.
Pharmacokinetic data analysis: The pharmacokinetic software was used to process the plasma drug concentration data of the compound in a non-compartmental model. The peak concentration (Cmax), peak time (Tmax) and quantifiable end time can be directly obtained from the plasma concentration-time diagram. The log-linear trapezoidal method was used to calculate the following pharmacokinetic parameters: half-life (T1/2), apparent volume of distribution (Vdss) and clearance (Cl), and the area under the time-plasma concentration curve (AUC0-inf) from the 0 point to the end point.

| SMILES | IC50 (MV4-11 cells; Homo sapiens) | Dmax (HiBiT tagged GSPT1) | viability at 120 h, 10 µM [1] | Dmax (HiBiT tagged CK1α; maximum CK1α degradation) | DC50 (HiBiT tagged CK1α; HT-1080 cells) | IC50 (MV4-11 cells) | HiBiT GSPT1: Dmax (HiBiT tagged GSPT1; HT-1080 cells) | CTG cell viability assay KG1a: Ymin (KG-1a cells) | HiBiT CK1α: Dmax (HiBiT tagged CK1α; HT-1080 cells, maximum CK1α degradation) | C0 ([2]; 2 mg/kg, IV) | clearance ([2]; 2 mg/kg, IV) | half-life ([2]; 2 mg/kg, IV) | Vd ([2]; 2 mg/kg, IV) | AUC(0-inf) ([2]; 10 mg/kg, PO) | Cmax ([2]; 10 mg/kg, PO) | Tmax ([2]; 10 mg/kg, PO) | half-life ([2]; 10 mg/kg, PO) | F ([2]; 10 mg/kg, PO) |
| --- | --- | --- | --- | --- | --- | --- | --- | --- | --- | --- | --- | --- | --- | --- | --- | --- | --- | --- |
| O=C1CCC(N2Cc3cc(C(=O)N[C@H](c4ccc(Cl)cc4)C4CC(F)(F)C4)ccc3C2=O)C(=O)N1 (stereo in doubt) [Compound 35, N-((*S)-(4-chlorophenyl)(3,3-difluorocyclobutyl)methyl)-2-(2,6-dioxopiperidin-3-yl)-1-oxoisoindoline-5-carboxamide] | 0.198 µM | 14.8% | 92.1% | 67% | 0.0947 µM | – | – | – | – | – | – | – | – | – | – | – | – | – |
| O=C1CCC(N2Cc3cc(C(=O)N[C@H](c4ccc(F)cc4)C4CCC4)ccc3C2=O)C(=O)N1 (stereo in doubt) [Compound 7, N—((*S)-cyclobutyl(4-fluorophenyl)methyl)-2-(2,6-dioxopiperidin-3-yl)-1-oxoisoindoline-5-carboxamide] | – | – | – | – | 0.0817 µM | 0.112 µM | 28.6% | 91.7% | 71.8% | – | – | – | – | – | – | – | – | – |
| O=C1CC[C@H](N2Cc3cc(C(=O)N[C@H](c4ccc(Cl)cn4)C4CCC4)ccc3C2=O)C(=O)N1 (single isomer, unassigned) [Compound 82] | 0.06 µM | 16.2% | – | 66.3% | – | – | – | – | – | 6800 ng/mL | 10.5 mL/min/kg | 1.34 h | 0.85 L/kg | 13300 ng·h/mL | 6080 ng/mL | 0.67 h | 2.03 h | – |
| O=C1CCC(N2Cc3cc(C(=O)N[C@H](c4ccc(F)cn4)C4(F)CCC4)ccc3C2=O)C(=O)N1 (stereo in doubt) [Compound 86, 2-(2,6-dioxopiperidin-3-yl)-N-((*R)-(1-fluorocyclobutyl)(5-fluoropyridin-2-yl)methyl)-1-oxoisoindoline-5-carboxamide] | 0.142 µM | 18.2% | – | 63% | 0.193 µM | – | – | – | – | 4910 ng/mL | 7.85 mL/min/kg | 3.62 h | 0.87 L/kg | 14900 ng·h/mL | 5690 ng/mL | 0.5 h | 2.12 h | 70.4% |
| O=C1CCC(N2Cc3cc(C(=O)NC(c4ccc(F)cc4)C4CC(F)(F)C4)ccc3C2=O)C(=O)N1 (stereo not drawn) [Compound 4, N-((3,3-difluorocyclobutyl)(4-fluorophenyl)methyl)-2-(2,6-dioxopiperidin-3-yl)-1-oxoisoindoline-5-carboxamide] | 0.262 µM | 31.1% | 90.9% | 63.4% | 0.183 µM | – | – | – | – | – | – | – | – | – | – | – | – | – |
| Cn1cc(-c2cccnc2[C@@H](NC(=O)c2ccc3c(c2)CN([C@H]2CCC(=O)NC2=O)C3=O)C2CCC2)cn1 (single isomer, unassigned) [Compound 84, N—((*S)-cyclobutyl(3-(1-methyl-1H-pyrazol-4-yl)pyridin-2-yl)methyl)-2-((S)-2,6-dioxopiperidin-3-yl)-1-oxoisoindoline-5-carboxamide] | 0.024 µM | 15.2% | – | 72.4% | 0.0741 µM | – | – | – | – | – | – | – | – | – | – | – | – | – |
| O=C1CCC(N2Cc3cc(C(=O)N[C@@H](c4ccc(F)cc4)C4CC(F)(F)C4)ccc3C2=O)C(=O)N1 (single isomer, unassigned) [Compound 5] | 0.363 µM | 30.3% | – | 75.9% | – | – | – | – | – | – | – | – | – | – | – | – | – | – |
| O=C1CCC(N2Cc3cc(C(=O)N[C@@H](c4ccc(F)cc4F)C4CCC4)ccc3C2=O)C(=O)N1 (stereo in doubt) [Compound 42, N-((*R)-cyclobutyl(2,4-difluorophenyl)methyl)-2-(2,6-dioxopiperidin-3-yl)-1-oxoisoindoline-5-carboxamide] | 0.42 µM | 40.8% | – | 57.7% | 1.15 µM | – | – | – | – | – | – | – | – | – | – | – | – | – |
| O=C1CCC(N2Cc3cc(C(=O)N[C@H](c4ccc(F)cc4)C4CC(F)(F)C4)ccc3C2=O)C(=O)N1 (single isomer, unassigned) [Compound 6] | 0.691 µM | 30.1% | – | 60.9% | – | – | – | – | – | – | – | – | – | – | – | – | – | – |
| O=C1CCC(N2Cc3cc(C(=O)N[C@H](c4ccc(F)cc4F)C4CCC4)ccc3C2=O)C(=O)N1 (stereo in doubt) [Compound 41, N-((*S)-cyclobutyl(2,4-difluorophenyl)methyl)-2-(2,6-dioxopiperidin-3-yl)-1-oxoisoindoline-5-carboxamide] | 0.115 µM | 24.9% | – | 70.5% | 0.0824 µM | – | – | – | – | 1860 ng/mL | 23 mL/min/kg | 2.84 h | 3.2 L/kg | 5870 ng·h/mL | 1570 ng/mL | 0.83 h | 2.72 h | 76.8% |
